US20200138764A1, “METHODS AND DEVICES FOR ACTIVATING ADIPOSE TISSUE” (The Procter & Gamble Company, priority 2018, published 2020)

Legend:
fat tissue = assay: qPCR biomarker analysis of fat tissue, in vivo; set-up: species or system Mice (C57BJ/6); conditions: mouse fat tissue, SC injection twice a week over 3 weeks
Method: (§1) Mice (8-10 weeks old males C57BJ/6 strain) were obtained from a commercial vendor Charles River Laboratories. The animal study protocols were approved by the Institutional Animal Care and Use Committee, at the Procter & Gamble Company. Mice were acclimated to the facility for 14 days prior to initiating the study. From arrival, mice were housed in solid-bottom shoebox styled cages within room temperature of 22±2° C. with ad libitum access to water and regular rodent chow diet on a 12 h light/dark cycle. Mice were single housed and offered bedding and various enrichment options. The bedding and nesting material allowed the mice to thermoregulate to their desired level of comfort. Body weights were recorded at the beginning of the study, on each dosing day prior to dosing, and final weights were recorded at the end of the study. Overall food consumption, fecal output, and body appearance were monitored during cage side clinical observations but were not scientifically measured or tracked. During the dosing period, the animals were observed several times per day (for example, before and during injection, immediately to 30-min post injection, a few hours after injection, and end of work day).
Three groups of animals were treated with mirabegron (i.e. positive control) (n=4), placebo (n=2) and Formula III (n=6) on the left side while the right side received placebo in all three groups. The injection was performed using a 25-27-gauge ½-⅝″ length needle via a subcutaneous (SC) injection near or into the inguinal fat pad region of the lower abdomen. Dosing was done twice a week injections over 3 weeks. Necropsy was done at week 4. Test materials were administered at room temperature and in a neutral pH range. Three days after last dosing animals were euthanized with CO2 inhalation, inguinal fat pads were harvested, and tissues were processed for histology and biomarker analysis.
The qPCR biomarker analysis was conducted from flash frozen fat tissue from mouse study described above. First, RNA was manually extracted with RNAdvance Tissue kit (Agencourt). RNA was extracted from flash frozen fat tissue according to manufactuer's directions. For example, 5 mm steel beads were placed in the freezer for approximately 15-20 minutes. Next, Qiagen Buffer RLT was cooled to 4° C. for 20 minutes and placed in a 96 well 1.5 mL tube rack for sample transfer. Isopropanol was added to Agencourt wash buffer. 100 mL aliquots of 70% ethanol in water were prepared. The RNA Tissue beads were allowed to warm to 22° C. (˜30 minutes), and then the beads were shaken vigorously and intermittently for at least 15-20 minutes. 1 stainless steel bead was added to a 2 mL round bottom tube stored on dry ice. The tissue sample was then transferred to the 2 mL round bottom tube.
The tube rack was placed on wet ice. Then, the tubes were transferred from dry ice to the rack in wet ice and 350 μL of cold buffer RLT were added to the tubes. The beads were beaten at 30 Hz for 2 minutes. After bead beating, samples were centrifuged for 2 minutes. The supernatant was transferred into 96 well deep well isolation plate.
80 μL of RNATissue beads were combined with 320 μL of isopropanol to create a Bind Buffer. This solution was prepared fresh for each isolation with any unused solution discarded.
400 μL of Bind Buffer was added to the to RLT mixture and slowly mixed. The solution was incubated at room temperature for 10 minutes. Special care was taken to avoid the formation of bubbles while tip mixing.
The mixture was placed on a magnet (96 well plate—Agencourt SPRIPlate) for 6-10 minutes. After the solution became clear, the supernatant was removed from each tube while the tubes remained on the magnet and the solution was discarded.
The tubes were removed from the magnet and the pellets were washed with 800 μL of the Isopropanol Wash Buffer ten times. […]

adipocyte = assay: In vivo browning study in lean mice: Fat % by image analysis of H&E stained tissue; set-up: species or system Mice (C57BJ/6)
Method: as §1
[…] The injection was performed using a 25-27-gauge ½-⅝″ length needle via a subcutaneous (SC) injection near or into the inguinal fat pad region of the lower abdomen. Dosing was done twice a week injections over 3 weeks. Necropsy was done at week 4. […]
Segments of adipocyte and inter-cellular regions in a stained image were identified by Python […] package. […] The threshold between adipocyte and inter-cellular regions in a converted image was detected by the Otsu filter function of the […]. The detected value was adjusted by multiplying 1.1.
The ratio of adipocyte in an image was calculated from the pixel number of the segments—Adipocyte Pixel was divided by Total Pixel.
The significance of the difference in Adipocyte Ratio between treatment and control groups was assessed by the Negative Binomial Generalized Linear Mixed-Effects Model using glmer.nb function of R lme4 package. […]

## CC(C)[C@@H]1CC[C@@H](C)C[C@H]1C(=O)NC[C@@H](NC(=O)[C@H](C)N)c1ccccc1 [Formula III]
Fat tissue
  Average Fold vs Placebo: AdipoQ: 4.7
  Average Fold vs Placebo: Adrb3: 18.3
  Average Fold vs Placebo: Cidea: 28.0
  Average Fold vs Placebo: Cox7a1: 5.7
  Average Fold vs Placebo: Cox8b: 19.0
  Average Fold vs Placebo: Dio2: 1.8
  Average Fold vs Placebo: Elovl3: 37.5
  Average Fold vs Placebo: IL6: 0.8
  Average Fold vs Placebo: Ppargc1: 3.0
  Average Fold vs Placebo: Prdm16: 3.5
  Average Fold vs Placebo: Tfap2a: 1.2
  Average Fold vs Placebo: UCP1: 73.2
adipocyte; mice, SC injection, Formula III one side and mirabegron other side, high and middle dosage merged, H&E images
  Average Fat % (Adipocyte Pixel / Total Pixel): 90.81%
adipocyte; treatment vs control, p-value 0.0278, negative binomial mixed-effects model
  treatment effect of reducing the adipocyte ratio: statistically significant
